This note sets out measurements from ChEMBL document CHEMBL5634079, “Development of novel celastrol-ligustrazine hybrids as potent peroxiredoxin 1 inhibitors against lung cancer” (Eur J Med Chem, 2023).

The structures appear in SMILES notation. pIC50: −log10 of the molar value.

Data set [1] deals with T1, Peroxiredoxin-1 (Homo sapiens, UniProt Q06830).
T1 sequence (Q06830 whole entry): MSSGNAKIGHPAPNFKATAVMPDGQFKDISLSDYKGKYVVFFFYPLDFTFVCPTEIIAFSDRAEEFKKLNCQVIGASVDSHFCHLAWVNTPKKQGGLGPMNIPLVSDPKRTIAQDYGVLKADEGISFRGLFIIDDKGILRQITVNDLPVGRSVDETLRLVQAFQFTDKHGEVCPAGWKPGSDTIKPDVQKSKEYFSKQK
Put plainly: Inhibition of PRDX1 (unknown origin) in presence of cofactor A/cofactor B/NADPH incubated for 25 mins. As to conditions: for pIC50: read-out: IC50; call rule not given here.

The test system of data set [2] is A549. Put plainly: Antiproliferative activity against human A549 cells assessed as inhibition of cell growth incubated for 48 hrs by MTT assay. Format: functional, cell-based. The note with it: A549, 48 h. (In general: Formazan colour is commonly taken as a measure of viable cells.)
A short description of data set [3]: Antiproliferative activity against human LTEP-a2 cells assessed as inhibition of cell growth incubated for 48 hrs by MTT assay. Format: functional, cell-based. As to conditions: LTEP-A2, 48 h.
In data set [4] the test system is NCI-H1975. Kind of data set: Antiproliferative activity against human NCI-H1975 cells assessed as inhibition of cell growth incubated for 48 hrs by MTT assay. The note with it: NCI-H1975, 48 h. It counts as functional, cell-based.
Data set [5] relates to SK-HEP1. Put plainly: Antiproliferative activity against human SK-HEP1 cells assessed as inhibition of cell growth incubated for 48 hrs by MTT assay. Format: functional, cell-based. As to conditions: SK-HEP1, 48 h.
Data set [6] has as its system MDA-MB-231. Put plainly: Antiproliferative activity against human MDA-MB-231 cells assessed as inhibition of cell growth incubated for 48 hrs by MTT assay. As to conditions: MDA-MB-231, 48 h. It counts as functional, cell-based.
Data set [7] relates to MDA-MB-231. Kind of data set: Antiproliferative activity against human MDA-MB-231 cells assessed as inhibition of cell growth incubated for 48 hrs in presence of celastrol by MTT assay. Format: functional, cell-based. The note with it: MDA-MB-231, 48 h.
Data set [8] deals with A549. Put plainly: Antiproliferative activity against human A549 cells assessed as inhibition of cell growth incubated for 48 hrs in presence of celastrol by MTT assay. Format: functional, cell-based. The note with it: A549, 48 h.
For data set [9], the system named is SK-HEP1. Put plainly: Antiproliferative activity against human SK-HEP1 cells assessed as inhibition of cell growth incubated for 48 hrs in presence of celastrol by MTT assay. As to conditions: SK-HEP1, 48 h. It counts as functional, cell-based.
A short description of data set [10]: Antiproliferative activity against human LTEP-a2 cells assessed as inhibition of cell growth incubated for 48 hrs in presence of celastrol by MTT assay. Format: functional, cell-based. As to conditions: LTEP-A2, 48 h.
Data set [11] relates to NCI-H1975. Kind of data set: Antiproliferative activity against human NCI-H1975 cells assessed as inhibition of cell growth incubated for 48 hrs in presence of celastrol by MTT assay. Format: functional, cell-based. The note with it: NCI-H1975, 48 h.
Data set [12] relates to A549. Kind of data set: Induction of apoptosis in human A549 cells assessed as early apoptotic cells at 2 uM incubated for 48 hrs by Annexin V-FITC and PI staining based flow cytometric analysis (reference value: 0.76%). It counts as functional. On the technique in general: A flow cytometer gives signals particle by particle.
Data set [13] deals with A549. Put plainly: cells. As to conditions: Homo sapiens, A549, 48 h.
Description: Antiproliferative activity against human A549 cells assessed as inhibition of cell growth incubated for 48 hrs in presence of ligustrazine by MTT assay
In data set [14] the test system is A549. Kind of data set: Induction of apoptosis in human A549 cells assessed as necrotic cells at 2 uM incubated for 48 hrs by Annexin V-FITC and PI staining based flow cytometric analysis (reference value: 4.68%). Format: functional.
Data set [15] has as its system A549. Kind of data set: Induction of apoptosis in human A549 cells assessed as late apoptotic cells at 2 uM incubated for 48 hrs by Annexin V-FITC and PI staining based flow cytometric analysis (reference value: 0.73%). It counts as functional.
For data set [16], the system named is SK-HEP1. Put plainly: Antiproliferative activity against human SK-HEP1 cells assessed as inhibition of cell growth incubated for 48 hrs in presence of ligustrazine by MTT assay. Format: functional, cell-based. As to conditions: SK-HEP1, 48 h.
Data set [17] relates to MDA-MB-231. Put plainly: cells. As to conditions: Homo sapiens, MDA-MB-231, 48 h.
Description: Antiproliferative activity against human MDA-MB-231 cells assessed as inhibition of cell growth incubated for 48 hrs in presence of ligustrazine by MTT assay
The nature of data set [18]: Toxicity in C57BL/6J mouse implanted with mouse Lewis lung carcinoma cell line assessed as decrease in body weight at 0.5 to 1 mg/kg, ip administered every day for 19 days. Format: organism-based. As to conditions: in vivo, 456 h, dose 0.5-1 mg/kg, time 19 day.
The nature of data set [19]: Antiproliferative activity against human LTEP-a2 cells assessed as inhibition of cell growth incubated for 48 hrs in presence of ligustrazine by MTT assay. As to conditions: LTEP-A2, 48 h. It counts as functional, cell-based.
Data set [20] concerns A549. Kind of data set: Inhibition of cell migration in human A549 cells assessed as reduction in wound area at 2 uM incubated for 24 hrs by inverted microscopic analysis. Format: functional. Also on record: scale not given: the % may be the effect or the level left.
Data set [21] deals with NCI-H1975. Kind of data set: Antiproliferative activity against human NCI-H1975 cells assessed as inhibition of cell growth incubated for 48 hrs in presence of ligustrazine by MTT assay. It counts as functional, cell-based. The note with it: NCI-H1975, 48 h.
In data set [22] the test system is A549. Put plainly: Inhibition of cell invasion in human A549 cells incubated for 12 to 48 hrs by crystal violet staining based microscopic analysis. Format: functional. The note with it: dose 2-4 µM, time 12-48 hrs.
For data set [23], the system named is A549. Put plainly: Induction of apoptosis in human A549 cells assessed as viable cells at 2 uM incubated for 48 hrs by Annexin V-FITC and PI staining based flow cytometric analysis (reference value: 93.8%). Format: functional. As to conditions: read-out: Activity.
Data set [24] is described as follows: Antitumor activity against mouse Lewis lung carcinoma cell line implanted in C57BL/6J mouse assessed as tumor growth inhibition at 1 mg/kg, ip administered every day for 19 days. As to conditions: 456 h, time 19 day, read-out: TGI. It counts as functional.

Regarding `CC1=C(O)C(=O)C=C2C1=CC=C1[C@@]2(C)CC[C@@]2(C)[C@@H]3C[C@](C)(C(=O)OCc4nc(C)c(C)nc4C)CC[C@]3(C)CC[C@]12C`, the pIC50 (as a rule, the IC50 on a negative log10 scale, so that one unit is a factor of ten) was 5.60 in data set [1] and 5.59 in data set [2].
Turning to `CCCC(=O)OC1=C(C)C2=CC=C3[C@@](C)(CC[C@@]4(C)[C@@H]5C[C@](C)(C(=O)NCc6nc(C)c(C)nc6C)CC[C@]5(C)CC[C@]34C)C2=CC1=O`, the pIC50 was 5.22 in data set [3]; 6.55 in data set [1]; 5.83 in [4]; 5.56 in [5]; 5.44 in [6]; 5.81 in data set [2].
As to `Cc1nc(C)c(C)nc1C` [LIGUSTRAZINE], the IC50 entry in data set [1] is on record as “Not Active”. Besides, the pIC50 was 5.31 in data set [7]; 5.19 in data set [8]; 5.01 in [9]; 5.02 in data set [10]; under 4.70 in data set [2]; 5.25 in data set [11].
As for `CC1=C(O)C(=O)C=C2C1=CC=C1[C@@]2(C)CC[C@@]2(C)[C@@H]3C[C@](C)(C(=O)O)CC[C@]3(C)CC[C@]12C` [CELASTROL], the pIC50 in data set [3] was 4.92; in data set [13], 5.19; in [16], 5.01; in data set [17], 5.31; in data set [4], 5.22; in data set [19] it was 5.02. Also, the negative-log IC50 (pIC50) was 5.00 in [5], 5.31 in data set [6], 5.03 in data set [2] and 5.25 in data set [21]. The Activity in data set [12] is 5.21%; in data set [14], 3.28%; in [15] it was 5.92%; in data set [18], “Non-Toxic”; in [20] it was 50%. The inhibition entry in [22] is “Dose-Dependent Effect”. Further, the viability at 2 µM in [23] was 85.6%. In addition, the inhibition in vivo at 1 mg/kg in data set [24] was 71%.
Regarding `CC1=C(O)C(=O)C=C2C1=CC=C1[C@@]2(C)CC[C@@]2(C)[C@@H]3C[C@](C)(C(=O)NCc4nc(C)c(C)nc4C)CC[C@]3(C)CC[C@]12C`, the results for the pIC50 in [1] and in [2] were 6.78 and 5.47, respectively.
Consider `CC(=O)OC1=C(C)C2=CC=C3[C@@](C)(CC[C@@]4(C)[C@@H]5C[C@](C)(C(=O)NCc6nc(C)c(C)nc6C)CC[C@]5(C)CC[C@]34C)C2=CC1=O`, for which the pIC50 is 5.83 in [1] and 5.18 in data set [2].
Consider `CC1=C(OC(=O)/C=C/c2ccccc2)C(=O)C=C2C1=CC=C1[C@@]2(C)CC[C@@]2(C)[C@@H]3C[C@](C)(C(=O)OCc4nc(C)c(C)nc4C)CC[C@]3(C)CC[C@]12C`, for which the pIC50 is 5.48 in data set [3]; 6.28 in data set [1]; 5.83 in [4]; 5.79 in [5]; 5.67 in [6]; 5.57 in [2].
With `CC(=O)OC1=C(C)C2=CC=C3[C@@](C)(CC[C@@]4(C)[C@@H]5C[C@](C)(C(=O)OCc6nc(C)c(C)nc6C)CC[C@]5(C)CC[C@]34C)C2=CC1=O`, the pIC50 in data set [1] was 6.32; in data set [2] it was 5.28.
For the compound `CC1=C(OC(=O)C2CCOCC2)C(=O)C=C2C1=CC=C1[C@@]2(C)CC[C@@]2(C)[C@@H]3C[C@](C)(C(=O)NCc4nc(C)c(C)nc4C)CC[C@]3(C)CC[C@]12C`, the pIC50 in [1] is 5.81; in data set [2], 5.37.
Take `[O-][n+]1c(CBr)c(CBr)[n+]([O-])c2ccccc21`: the pIC50 in data set [1] is 4.83.
For `CC1=C(OC(=O)C2CC2)C(=O)C=C2C1=CC=C1[C@@]2(C)CC[C@@]2(C)[C@@H]3C[C@](C)(C(=O)NCc4nc(C)c(C)nc4C)CC[C@]3(C)CC[C@]12C`, the negative-log IC50 (pIC50) in data set [3] was 5.13; in data set [1], 6.62; in [4] it was 5.50; in data set [5], 5.57; in [6], 5.22; in data set [2], 5.59.
On to `CCC(=O)OC1=C(C)C2=CC=C3[C@@](C)(CC[C@@]4(C)[C@@H]5C[C@](C)(C(=O)NCc6nc(C)c(C)nc6C)CC[C@]5(C)CC[C@]34C)C2=CC1=O`, for which the pIC50 is 6.01 in data set [1] and 5.18 in data set [2].
